Assay results: patent US6160087A, “Peptides having an amino acid sequence from the fimbrial protein of porphyromonas gingivalis and their uses” (priority 1993, dated 2000)

Experiments:
[1] = system: anti-Porphyomonas gingivalis fimbria antibodies contained in sera of patients with periodontal disease; test: Assay of the specific antibody in serum using plates coated with peptide-modified BSA (ELISA); type: binding, human; conditions: average absorbance (405 nm) of 3 specimens, serum diluted 100 times
Method: One mg of each peptide synthesized in Example 2 was dissolved in 1 ml of 0.1 M phosphate buffered saline (PBS, pH 6.0), 5 mg of sulfated SMCC (made by Pierce Co.) was added, and the mixture was incubated at 30° C. for 30 minutes to conduct maleimidization, and then subjected to Sephadex G-10 column chromatography, and the first eluate fraction was collected. 7 mg of bovine serum albumin (BSA: made by Wako Pure Chemical Industries, Ltd.) was dissolved in 1 ml of 0.1 M phosphate buffer (pH 6.0), 10 mM EDTA, the solution was mixed with the above maleimidized peptide, and the mixture was subjected to reaction at 30° C. for 1 hour. The resultant peptide-modified BSA was subjected to Sephadex G-50 column chromatography, and the first eluate fraction was collected as a plate-preparing antigen solution.
Then, six kind of peptides were synthesized after the process of Example 2, and a plate-preparing antigen solution was similarly prepared as a control.
Each of the resultant antigen solutions was diluted with 0.1 M carbonate buffer (pH 9.6), 150 mM NaCl to give 100 ml of a solution. 10 μl/well of the solution was put in a polystyrene-made microtiter plate (Immunoplate II; maxisorp type; made by Nunc Co.) and left alone at 4° C. overnight, and washing was conducted three times each with 200 μl/well of PBS, using a microtiter automatic washer (hereafter abbreviated as washer; made by Bio-Rad Laboratories). 250 μl/well of PBS containing 0.1% gelatin (made by Nitta Gelatin Co., Ltd.) was added and the mixture was allowed to stand at 4° C. overnight to block the plate. The blocking solution was removed by absorption, and the plate was dried by a vacuum dryer, put in an aluminum bag, and after sealing the bag, kept at 4° C. for the following assay.
Sera of patients of periodontal disease (n=3) and normal subjects (n=3) were used as samples, and each serum was diluted 100 times with PBS containing 10% bovine serum. 100 μl portions of these dilutions were added to the plates coated with various antigens, respectively, and incubation was conducted at 37° C. for 1 hour. Each plate was washed three times with 200 μl of PBST using the washer, 100 μl of a commercially available […] (diluted 10^3 times)/0.1% Casein/PBST was added as a secondary antibody, and incubation was conducted again at 37° C. for 1 hour. The plate was washed in the same manner as above, 100 μl of an o-phenylenediamine solution was added, incubation was conducted at 37° C. for 30 minutes, 100 μl of 0.1 N sulfuric acid was added to stop the reaction, and then, absorbance (405 nm) was measured by a microplate reader (made by Bio-Rad Laboratories) using the reaction well of no addition of the specimen as a control. The measures values are average absorbances of 3 specimens each of the patient group of periodontal disease and the normal subject group.

[2] = system: fimbrial protein of Porphyomonas gingivalis; test: Immunization of mice with the peptides: antibody titer in serum or saliva by ELISA; type: in vivo; conditions: A405 value by the ELISA method, with FCA, 4 weeks later
Method: (§1) Each peptide synthesized in Example 2 was dissolved in PBS so as to make the concentration 200 μg/ml, the solution was mixed with the same volume of FCA, and the mixture after emulsification was subcutaneously injected into mice at the back (3 animals per group). 4 weeks later, the antibody titer in the serum or saliva against the peptide was assayed by an ELISA method.
The fimbrial protein of Porphyomonas gingivalis was adsorbed on each well of a 96-well microtiter plate for ELISA, and a dilution of the serum with PBS (1/10^5), a dilution of the saliva with PBS (1/500), or a solution obtained by adding each peptide or the fimbrial protein of Porphyomonas gingivalis is to the dilution of the serum or saliva to cause absorption was put in the well. Reaction was conducted at 37° C. for 1 hour, and then assay was conducted by a usual ELISA method.

[3] = Immunization of mice with the peptides: body weight; type: in vivo; conditions: mice immunized with FCA emulsion, 3 animals per group
Method: as §1

[4] = Inhibitory test of Porphyomonas gingivalis infection in Golden hamster with vaccine: body weight; type: in vivo, Golden hamsters; conditions: vaccine of Example 3, subcutaneous at the oral cavity, fed for 80 days
Method: (§2) 3-week-old Golden hamsters (one group consisting of 6 animals, 5 groups in total, 1 Porphyomonas gingivalis strain 381 fimbria immunity induction group, 2 Peptide 1 immunity induction group, 3 Peptide 7 immunity induction group, 4 Nonimmunity induction group, 5 Nonimmunity noninduction group) were used.
(§3) Each of the vaccines of the invention was subcutaneously administered at the oral cavity in amounts of 0.2 ml portions on the third week and the fourth week after the birth, and 0.4 ml on the fifth week.
(§4) After the Golden hamsters were fed for 80 days, 1 ml/kg portions of 0.5% pilocarpine hydrochloride were intraperitoneally administered, and saliva was taken from them. Thereafter, blood was taken from the abdominal aorta of each animal, and serum was obtained therefrom. Further, a bone preparation from each hamster was produced by amputating the head, heat treating the head using an autoclave, removing the muscle part, and washing with water and drying the remaining matter.

[5] = system: Porphyomonas gingivalis strain 381; test: Inhibitory test of Porphyomonas gingivalis infection in Golden hamster with vaccine: resorption of alveolar bone; type: in vivo, Golden hamsters; conditions: for degree of resorption of the alveolar bone: in words; for Absorbance of alveolar bone (average): vaccine of Example 3, induction with Porphyomonas gingivalis strain 381, 80 days
From the text: The effects of vaccine on Peptide 1 and Peptide 7 selected from the results of Test example 1, Test example 2, Test example 3, Test example 4 and Test example 5 were examined according to the following method using degree of resorption of alveolar bone and antibody titer as measures, using the vaccine described in Example 3.
as §2, §3
(§5) Induction of periodontal disease was conducted by culturing Porphyomonas gingivalis strain 381 in GAM broth at 37° C. for 20 hours, collecting the cells by centrifugation, suspending the cells in phisiological saline so that the cell concentration could be 10^9 cells/ml, administering 0.2 ml portions of the suspension into the oral cavity of the Golden hamsters for 7 days starting from the sixth week after the birth, and thereafter, administering the suspension once a week.
After the start of the cell administration, the animals were allowed to freely ingest Diet 2000 (made by Funabashi Nojo) as a dental caries-inducing feed and water.
as §4
The bone preparation was assayed for degree of resorption of the alveolar bone of a molar according to the method^f) of Tsukiyama et al. (Koku Eisei Kaishi (Jornal of Hygiene of Oral Cavity) 28, No. 3, 149, 1978).
f) The bone preparation was stained with 20% silver nitrate solution for 5 minutes, and after water washing and drying, the distance from the enamel-cement junction to the alveolar bone edge was measured by a stereoscopic microscope (magnification 15-fold).

[6] = system: the peptide; test: Inhibitory test of Porphyomonas gingivalis infection in Golden hamster with vaccine: antibody titer in serum and saliva; type: in vivo, Golden hamsters; conditions: for Antibody titer Saliva (1/500) / Antibody titer Serum (1/10^5): A405 value by the ELISA method; for antibody titer in the sera and saliva: in words
Method: as §2, §3, §5, §4
The saliva and serum were assayed for antibody titer against the peptide.

[7] = system: Porphyomonas gingivalis; type: in vivo, guinea pig; conditions: for inhibitory effect against infection with Porphyomonas gingivalis: guinea pig, in words; for Degree of redness Longest length × shortest length / Inhibition rate: with FCA; for Degree of redness Longest length × shortest length: 500 μg/animal, inoculation on the 28th day, 24 hours later; for Inhibition rate: relative to the FIA inoculation group
Method: Each peptide synthesized in Example 2 was administered together with FIA (Freund's incomplete adjuvant) or FCA (Freund's complete adjuvant), as a water-in-oil type emulsifier, into the sole of the right hind leg of a guinea pig in an amount of 500 μg/animal/time. Thereafter, on the 28th day, 200 μl of a suspension of 10^11 cells/ml of the bacterium was intracutaneously inoculated into the right flank of the same guinea pig after the hair at the region was shaved. 24 hours later, the longest length and shortest length of the resultant red coloring were measured, and the product of them was calculated. From the product was calculated the inhibition rate.

Substance	Antibody titer, Normal subject group [1]	Antibody titer, Patient group with peridontal disease [1]	Antibody titer Saliva (1/500) After absorption [2]	Antibody titer Saliva (1/500) Before absorption [2]	Antibody titer Serum (1/10^5) After absorption [2]	Antibody titer Serum (1/10^5) Before absorption [2]	Body weight (Average g) [3] [g]	Body weight (at the time of production of bone preparation) (average g) [4] [g]	degree of resorption of the alveolar bone [5]	Absorbance of alveolar bone (average) [5]	Antibody titer Saliva (1/500) [6]	Antibody titer Serum (1/10^5) [6]	antibody titer in the sera and saliva [6]	inhibitory effect against infection with Porphyomonas gingivalis [7]	Degree of redness Longest length × shortest length [7] [mm^2]	Inhibition rate [7] [%]
Peptide 1: synthetic peptide, epitope of the 41 kD fimbrial subunit protein of Porphyomonas gingivalis; sequence in Table 1, not shown (ENATKVEDIK)	0.145	1.016	0.11	0.61	0.19	0.62	25	124	inhibition of absoption of the alveolar bone	48	0.62	0.65	increse of antibody titer	strong inhibitory effect	660	66.1
Peptide 2: synthetic peptide, epitope of the 41 kD fimbrial subunit protein of Porphyomonas gingivalis; sequence in Table 1, not shown (EVKALTTELT)	0.205	0.566	0.17	0.36	0.15	0.34	26								1179	39.5
Peptide 3: synthetic peptide, epitope of the 41 kD fimbrial subunit protein of Porphyomonas gingivalis; sequence in Table 1, not shown (AENQEAAGLI)	0.214	0.623	0.09	0.37	0.16	0.38	26								1155	40.7
Peptide 7: synthetic peptide, epitope of the 41 kD fimbrial subunit protein of Porphyomonas gingivalis; sequence in Table 1, not shown (GFYVLENDYS)	0.226	1.224	0.15	0.69	0.14	0.67	23	123	inhibition of absoption of the alveolar bone	41	0.79	0.71	increse of antibody titer	strong inhibitory effect	240	87.7
Peptide 5: synthetic peptide, epitope of the 41 kD fimbrial subunit protein of Porphyomonas gingivalis; sequence in Table 1, not shown (TGSLTTFNGA)	0.165	0.760	0.15	0.42	0.11	0.45	28								1063	45.4
